# Data taken from ChEMBL document CHEMBL4819155, “Phenolic compounds from the leaves of Crataegus pinnatifida Bge. var. major N.E.Br. And their lipid-lowering effects” (2021).
# Activity calls are given as the source filed them. The rule behind the calls is not given here.
# How the values were obtained:
# HepG2 [1] = assay: Hypolipidemic activity against oleic acid/palmitic acid-induced hyperlipidemia in human HepG2 cells assessed as reduction in triglycerides content; format: functional, cell-based
# HepG2 [2] = assay: Hypolipidemic activity against oleic acid-induced lipid accumulation in human HepG2 cell model assessed reduction in total cholesterol level; format: functional, cell-based
# HepG2 [3] = assay: Hypolipidemic activity against oleic acid/palmitic acid-induced hyperlipidemia in human HepG2 cells assessed as triglycerides content measured per gm of protein; format: functional
# HepG2 [4] = assay: Hypolipidemic activity against oleic acid/palmitic acid-induced hyperlipidemia in human HepG2 cells assessed as decrease in triglycerides level at 0.01 to 1 uM; format: functional, cell-based; conditions: dose 0.01-1 µM
# HepG2 [5] = assay: Hypolipidemic activity against oleic acid/palmitic acid-induced hyperlipidemia in human HepG2 cells assessed reduction in total cholesterol level at 0.001 to 10 uM; format: functional, cell-based; conditions: dose 0.001-10 µM
# HepG2 [6] = assay: Hypolipidemic activity against oleic acid/palmitic acid-induced hyperlipidemia in human HepG2 cells assessed as reduction in triglycerides content relative to control group; format: functional
# HepG2 [7] = assay: Hypolipidemic activity against oleic acid/palmitic acid-induced hyperlipidemia in human HepG2 cells assessed as decrease in triglycerides level at 0.001 to 10 uM; format: functional, cell-based; conditions: dose 0.001-10 µM
# HepG2 [8] = assay: Hypolipidemic activity against oleic acid/palmitic acid-induced hyperlipidemia in human HepG2 cells assessed as decrease in triglycerides level at 0.001 to 1 uM; format: functional, cell-based; conditions: dose 0.001-1 µM
# HepG2 [9] = assay: Hypolipidemic activity against oleic acid/palmitic acid-induced hyperlipidemia in human HepG2 cells assessed reduction in total cholesterol level at 10 uM; format: functional, cell-based
Structure (SMILES),Activity (HepG2 [1]),Activity (HepG2 [3]),other results
CCC(C)(C)C(=O)O[C@H]1C[C@@H](C)C=C2C=C[C@H](C)[C@H](CC[C@@H]3C[C@@H](O)CC(=O)O3)[C@H]21,Active,,Activity (HepG2 [2]): Active
O=C(/C=C/c1ccc(O)c(O)c1)O[C@@H]1C[C@](O)(C(=O)O)C[C@@H](O)[C@H]1O,Active,,
O=c1c(O)c(-c2ccc(O)c(O)c2)oc2cc(O)cc(O)c12,Active,,
C[C@@H]1O[C@@H](O[C@@H]2[C@@H](O)[C@H](O)[C@@H](CO)O[C@H]2c2c(O)cc(O)c3c(=O)cc(-c4ccc(O)cc4)oc23)[C@H](O)[C@H](O)[C@H]1O,Active,,
Oc1cc(O)c2c(c1)O[C@H](c1ccc(O)c(O)c1)[C@@H](O)C2,Active,,
Oc1cc(O)c2c(c1)O[C@H](c1ccc(O)c(O)c1)[C@H](O)C2,Active,,
O=c1cc(-c2ccc(O)cc2)oc2c([C@@H]3O[C@H](CO)[C@@H](O)[C@H](O)[C@H]3O)c(O)cc(O)c12,,0.283 mmol,Activity (HepG2 [4]): Dose-Dependent Effect; Activity (HepG2 [5]): Dose-Dependent Effect; inhibition (HepG2 [6]; dose or concentration not given here): 34.6%
O=c1c(O[C@@H]2O[C@H](CO)[C@H](O)[C@H](O)[C@H]2O)c(-c2ccc(O)c(O)c2)oc2cc(O)cc(O)c12,Active,,
O=c1c(O[C@@H]2O[C@H](CO)[C@@H](O)[C@H](O)[C@H]2O)c(-c2ccc(O)c(O)c2)oc2cc(O)cc(O)c12 [ISOQUERCETIN],,0.308 mmol,Activity (HepG2 [2]): inactive; inhibition (INH) (HepG2 [6]): 30.42%; Activity (HepG2 [7]): Active
O=C1C[C@@H](c2ccc(O)c(O)c2)c2c(cc(O)c3c2O[C@H](c2cc(O)cc(O)c2)[C@H](O)C3)O1,,0.28 mmol,Activity (HepG2 [8]): Dose-Dependent Effect; Activity (HepG2 [5]): Dose-Dependent Effect; inhibition (INH) (HepG2 [6]): 34.92%
O=C1C[C@@H](c2ccc(O)c(O)c2)c2c(cc3c(c2O)C[C@@H](O)[C@@H](c2ccc(O)c(O)c2)O3)O1,Active,,
O=c1cc(-c2ccc(O)cc2)oc2c([C@@H]3O[C@H](CO)[C@@H](O[C@@H]4O[C@H](CO)[C@@H](O)[C@H](O)[C@H]4O)[C@H](O)[C@H]3O)c(O)cc(O)c12,,0.28 mmol,Activity (HepG2 [9]): Active; inhibition (INH) (HepG2 [6]): 35.34%; Activity (HepG2 [7]): Active
COc1cc(CO[C@@H]2O[C@H](CO)[C@@H](O)[C@H](O)[C@H]2O)cc(OC)c1OC,Active,,
